Marks after values point to notes of the source that are not given here.
How the values were obtained:
serotonin reuptake sites = serotonin reuptake sites (Homo sapiens, UniProt P31645); assay: In vitro affinity for serotonin reuptake sites; type: binding; settings: for Ki: read-out: Serotonine binding pKi (converted)
dopamine reuptake sites = dopamine reuptake sites (Homo sapiens, UniProt Q01959); assay: In vitro affinity for dopamine reuptake sites; type: binding; settings: for Ki: read-out: Dopamine binding pKi (converted)
Description: (§1) In vitro affinity for neurotransmitter reuptake sites were either obtained by CEREP (128, rue Danton, 92500 Rueil-Malmaison, France) or at Solvay Pharmaceuticals B. V. (C. J. van Houtenlaan 36, 1381 CP Weesp, The Netherlands), using well documented procedures. Measured were affinities for serotonin (Tatsumi, 1999), norepinephrine (Pacholczyk, 1991) and dopamine reuptake sites (Pristupa, 1994).

[3H]-serotonin reuptake = target: T1, [3H]-serotonin reuptake (Rattus norvegicus, UniProt P31652); assay: In vitro functional inhibition of [3H]-serotonin reuptake, cerebral hemisphere synaptosomes; type: biochemical; settings: for IC50: read-out: Serotonine inhibition pIC50 (converted)
T1 construct: the cerebral hemispheres were rapidly removed, and a P2-synaptosomal fraction was prepared; from tissue; host or cells: rat cerebral hemispheres, P2 synaptosomal fraction
Method: (§2) Subsequently, the synaptosomes were exposed to [^3H]-serotonin ([…] final concentration) for 10 min. [^3H]-Serotonine uptake was stopped by filtration with a harvester and the non-incorporated radioactivity was removed by extensive washing. Filter plates with synaptosomes were dehydrated, and the amount of [^3H]-serotonin present was determined by Betaplate liquid scintillation counting.

[3H]-dopamine reuptake = target: T2, [3H]-dopamine reuptake (Rattus norvegicus, UniProt P23977); assay: In vitro functional inhibition of [3H]-dopamine reuptake, striatum synaptosomes; type: biochemical; settings: for IC50: read-out: Dopamine inhibition pIC50 (converted)
T2 construct: the striatum was rapidly removed and a crude synaptosomal fraction (P2) was prepared; from tissue; host or cells: rat striatum, crude P2 synaptosomal fraction
Method: In vitro functional inhibition of [^3H]-dopamine reuptake: male rats (Wistar Hsd/Cpb: WU; 175-200 g) were decapitated; the striatum was rapidly removed and a crude synaptosomal fraction (P2) was prepared by homogenization and centrifugation. Synaptosomes were pre-incubated in absence or presence of the test compound for 15 min at 37° C., in a medium containing the monoamine oxidase inhibitor pargyline (7×10^−6 M) (Coyle, 1969). Subsequently, [^3H]-dopamine (2×10^−7 M final concentration) was added and incubation was continued for 10 min. [^3H]-dopamine uptake was stopped by filtration and the synaptosomes were washed four times with phosphate buffered saline. The amount of [^3H]-dopamine in the synaptosomes was determined by Betaplate liquid scintillation counting. […] Inhibition of DA uptake was performed in duplicate.

[1] = target: norepinephrine reuptake sites (Homo sapiens, UniProt P23975); assay: In vitro affinity for norepinephrine reuptake sites; type: binding; settings: for Ki: read-out: Noradrenaline binding pKi (converted)
[2] = target: T3, [3H]-norepinephrine reuptake (Rattus norvegicus, UniProt Q63380); assay: In vitro functional inhibition of [3H]-norepinephrine reuptake, hypothalamus synaptosomes; type: biochemical; settings: for IC50: read-out: Noradrenaline inhibition pIC50 (converted)
T3 construct: the hypothalamus was rapidly removed and a crude synaptosomal fraction was prepared; from tissue; host or cells: rat hypothalamus, crude synaptosomal fraction
Method: In vitro functional inhibition of [^3H]-norepinephrine reuptake: male rats (Wistar Hsd/Cpb: WU; 175-200 g) were decapitated, the hypothalamus was rapidly removed and a crude synaptosomal fraction was prepared. Synaptosomes were pre-incubated in absence or presence of the test compound for 10 min at 37° C., in a medium containing the MAO inhibitor pargyline (7 μM). Subsequently, the synaptosomes were exposed to [^3H]-norepinephrine ([…] final concentration) for 15 min. [^3H]-Norepinephrine uptake was stopped by filtration with a harvester and the non-incorporated radioactivity was removed by an extensive washing programme. The filterplates with synaptosomes were dehydrated and the amount of [^3H]-norepinephrine present was determined by Betaplate liquid scintillation counting. […] Test compounds, 10^−2 M dissolved in DMSO, were diluted in Krebs Ringer buffer to test concentrations of 10^−8-10^−5 M. Further experimental details were as described (Coyle, 1969).

in vivo = settings: for AUC0→∞: Tend = ∞
Method: Proteins in 100 μl plasma were precipitated with acetonitrile, and 5 μl samples of the obtained solutions were analyzed. Complete brains were homogenized and centrifuged, and 10 μl samples of the supernatant were analyzed.
Liquid Chromatography-Tandem Mass Spectrometry (LC-MS/MS) was performed using a Sciex API4000 LC-MS/MS. Samples were quantified using extracted calibration samples, treated the same as the study samples, in the range of 1-5000 ng/ml and 5.0-5000 ng/brain for plasma and brain samples, respectively. Compound peak area was used for quantification. Calibration curves were fitted to the model y=A+Bx+Cx^2 (y is the peak area of the analyte, x is the nominal calibration level in ng/ml (plasma) or ng/g (brain), A is the intercept, B is the slope and C is the description of the curvature). 1/x^2 weighing was used. LC-MS/MS system performance was monitored using a reference solution injected at standard intervals. […] The Lower Limit Of Quantification (LLOQ) was established at 1.00 ng/ml and 5.00 ng/brain, for plasma and brain samples, respectively. Values below the LLOQ were given as best estimate. Reversed phase HPLC was performed using gradient elution by a Hypersil BDS C18 100×4.6 mm 3 μm analytical column, at 45° C. and with a flow of 1.00 ml/min: […]

[3] = test system: dopamine, noradrenaline and serotonine reuptake; assay: In vitro pharmacology, summary in words over binding and reuptake inhibition
Method: as §1, §2
In vitro functional inhibition of [^3H]-norepinephrine reuptake: male rats (Wistar Hsd/Cpb: WU; 175-200 g) were decapitated, the hypothalamus was rapidly removed and a crude synaptosomal fraction was prepared. […] [^3H]-Norepinephrine uptake was stopped by filtration with a harvester and the non-incorporated radioactivity was removed by an extensive washing programme. The filterplates with synaptosomes were dehydrated and the amount of [^3H]-norepinephrine present was determined by Betaplate liquid scintillation counting. […]

[4] = Reduction of venlafaxine N-oxide in the human colon model TIM2; type: in vitro ADME; settings: within 2 hours after dosing
Method: The human colon model TIM2 (TNO Intestinal Model 2): this model is a dynamic model for the human large intestine that simulates in vivo conditions. It is an artificial digestive system that has been validated by many studies (Minekus, 1999).
Suspended in 1% methylcellulose, venlafaxine-N-oxide (1 mg) was inserted into the lumen (120 ml) of the TIM2 model (see above, Minekus, 1999). Samples from the lumen and the dialysate (the latter being a model for the vascular bed of the intestines) were taken at various time intervals, and analyzed for venlafaxine-N-oxide and venlafaxine.

[5] = male, NMRI, mouse, in vivo, iv, 1 mg/kg
[6] = male, NMRI, mouse, in vivo, po, 10 mg/kg
[7] = male, NMRI, mouse, plasma, iv, 1 mg/kg
[8] = male, NMRI, mouse, plasma, po, 10 mg/kg
[9] = mice, labelled compound given 1.0 mg/kg i.v., 0.5 h
[10] = mice, labelled compound given 1.0 mg/kg i.v., 1 h
[11] = mice, labelled compound given 1.0 mg/kg i.v., 3 h
[12] = mice, labelled compound given 1.0 mg/kg i.v., 7 h
[13] = mice, labelled compound given 1.0 mg/kg i.v., 24 h
[14] = mice, labelled compound given 10 mg/kg p.o., 0.5 h
[15] = mice, labelled compound given 10 mg/kg p.o., 1 h
[16] = mice, labelled compound given 10 mg/kg p.o., 3 h
[17] = mice, labelled compound given 10 mg/kg p.o., 7 h
[18] = mice, labelled compound given 10 mg/kg p.o., 24 h

Chain of serotonin reuptake sites (P31645 whole entry): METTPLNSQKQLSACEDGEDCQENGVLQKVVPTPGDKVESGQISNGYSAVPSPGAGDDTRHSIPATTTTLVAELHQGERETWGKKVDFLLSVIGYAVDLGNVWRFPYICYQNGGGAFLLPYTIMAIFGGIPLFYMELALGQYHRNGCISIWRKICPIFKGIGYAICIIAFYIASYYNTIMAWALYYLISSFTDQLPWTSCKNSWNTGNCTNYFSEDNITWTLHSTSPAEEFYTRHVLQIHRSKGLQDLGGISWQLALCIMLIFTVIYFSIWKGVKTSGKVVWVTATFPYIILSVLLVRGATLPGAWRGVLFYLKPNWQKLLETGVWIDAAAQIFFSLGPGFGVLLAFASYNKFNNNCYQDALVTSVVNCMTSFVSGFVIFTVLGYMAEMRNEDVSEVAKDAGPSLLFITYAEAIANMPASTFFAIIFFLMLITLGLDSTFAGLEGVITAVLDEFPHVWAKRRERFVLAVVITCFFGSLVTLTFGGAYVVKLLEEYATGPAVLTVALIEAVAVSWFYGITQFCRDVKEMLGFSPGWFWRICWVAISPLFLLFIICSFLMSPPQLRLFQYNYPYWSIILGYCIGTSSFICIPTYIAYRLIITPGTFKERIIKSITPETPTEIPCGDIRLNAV
Chain of dopamine reuptake sites (Q01959 whole entry): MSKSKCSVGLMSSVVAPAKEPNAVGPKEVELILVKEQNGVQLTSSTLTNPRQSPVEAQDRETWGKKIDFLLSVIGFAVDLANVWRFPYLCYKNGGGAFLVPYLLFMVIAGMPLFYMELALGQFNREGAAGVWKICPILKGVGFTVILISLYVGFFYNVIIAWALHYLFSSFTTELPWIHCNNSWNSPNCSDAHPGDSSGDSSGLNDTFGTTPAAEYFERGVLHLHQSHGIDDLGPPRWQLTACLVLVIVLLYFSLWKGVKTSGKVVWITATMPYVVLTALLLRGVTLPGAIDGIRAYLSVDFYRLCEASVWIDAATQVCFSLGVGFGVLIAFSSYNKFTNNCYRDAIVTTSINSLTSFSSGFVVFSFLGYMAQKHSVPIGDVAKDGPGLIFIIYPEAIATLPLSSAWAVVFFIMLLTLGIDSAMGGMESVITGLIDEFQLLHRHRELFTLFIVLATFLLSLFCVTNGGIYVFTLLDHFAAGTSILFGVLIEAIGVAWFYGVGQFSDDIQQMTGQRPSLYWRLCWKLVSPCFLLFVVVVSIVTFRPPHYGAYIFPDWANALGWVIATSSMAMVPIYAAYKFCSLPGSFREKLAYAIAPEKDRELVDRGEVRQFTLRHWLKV
Chain of norepinephrine reuptake sites (P23975 whole entry): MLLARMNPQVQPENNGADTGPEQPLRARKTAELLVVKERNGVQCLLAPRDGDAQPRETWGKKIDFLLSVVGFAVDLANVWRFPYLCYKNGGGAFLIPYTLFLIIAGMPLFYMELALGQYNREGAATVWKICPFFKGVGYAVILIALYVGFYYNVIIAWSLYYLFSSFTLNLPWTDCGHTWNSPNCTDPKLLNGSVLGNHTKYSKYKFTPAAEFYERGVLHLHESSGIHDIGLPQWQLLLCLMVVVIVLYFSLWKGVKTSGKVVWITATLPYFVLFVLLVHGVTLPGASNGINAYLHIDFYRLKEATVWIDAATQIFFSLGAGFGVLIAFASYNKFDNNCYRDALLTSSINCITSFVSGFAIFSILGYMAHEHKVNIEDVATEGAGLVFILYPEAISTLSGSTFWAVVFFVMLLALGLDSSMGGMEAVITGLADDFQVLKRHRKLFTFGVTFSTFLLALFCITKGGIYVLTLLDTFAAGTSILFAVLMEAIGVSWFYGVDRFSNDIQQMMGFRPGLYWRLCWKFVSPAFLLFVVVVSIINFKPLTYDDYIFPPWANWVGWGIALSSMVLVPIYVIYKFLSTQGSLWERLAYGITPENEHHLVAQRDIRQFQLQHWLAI
T3 sequence (Q63380 1-617): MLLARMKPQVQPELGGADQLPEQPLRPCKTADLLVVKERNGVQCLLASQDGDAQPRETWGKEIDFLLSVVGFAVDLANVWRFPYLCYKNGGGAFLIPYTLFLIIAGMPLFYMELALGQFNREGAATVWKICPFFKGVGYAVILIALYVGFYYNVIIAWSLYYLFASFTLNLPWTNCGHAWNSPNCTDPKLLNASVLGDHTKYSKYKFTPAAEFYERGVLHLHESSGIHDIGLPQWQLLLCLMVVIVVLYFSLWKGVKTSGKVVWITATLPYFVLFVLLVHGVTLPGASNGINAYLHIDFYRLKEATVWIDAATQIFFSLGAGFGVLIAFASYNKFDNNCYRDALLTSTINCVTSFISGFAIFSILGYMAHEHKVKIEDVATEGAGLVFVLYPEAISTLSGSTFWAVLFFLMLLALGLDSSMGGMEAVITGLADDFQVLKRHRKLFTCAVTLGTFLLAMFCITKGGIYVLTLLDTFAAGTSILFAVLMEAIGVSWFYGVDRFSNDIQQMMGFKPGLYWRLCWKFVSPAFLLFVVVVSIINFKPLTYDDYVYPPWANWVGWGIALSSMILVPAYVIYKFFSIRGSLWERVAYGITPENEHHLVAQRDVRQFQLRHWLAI
T2 sequence (P23977 whole entry): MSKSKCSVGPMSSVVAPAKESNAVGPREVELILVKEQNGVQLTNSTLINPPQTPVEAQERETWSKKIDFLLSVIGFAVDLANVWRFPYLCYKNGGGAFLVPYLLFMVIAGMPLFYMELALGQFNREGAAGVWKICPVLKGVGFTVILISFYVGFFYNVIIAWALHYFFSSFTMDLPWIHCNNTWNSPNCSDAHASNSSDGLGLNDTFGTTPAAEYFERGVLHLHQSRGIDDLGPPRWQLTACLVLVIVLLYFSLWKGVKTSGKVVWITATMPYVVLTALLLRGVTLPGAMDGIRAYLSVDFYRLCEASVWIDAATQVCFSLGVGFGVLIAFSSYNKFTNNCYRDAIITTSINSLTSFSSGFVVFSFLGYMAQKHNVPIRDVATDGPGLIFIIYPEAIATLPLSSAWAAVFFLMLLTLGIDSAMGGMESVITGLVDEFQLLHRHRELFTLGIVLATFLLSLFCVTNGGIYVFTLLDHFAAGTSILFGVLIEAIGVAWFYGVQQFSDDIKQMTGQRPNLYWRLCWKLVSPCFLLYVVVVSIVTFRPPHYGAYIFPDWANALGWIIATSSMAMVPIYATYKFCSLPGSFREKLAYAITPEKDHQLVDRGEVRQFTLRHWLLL
T1 sequence (P31652 whole entry): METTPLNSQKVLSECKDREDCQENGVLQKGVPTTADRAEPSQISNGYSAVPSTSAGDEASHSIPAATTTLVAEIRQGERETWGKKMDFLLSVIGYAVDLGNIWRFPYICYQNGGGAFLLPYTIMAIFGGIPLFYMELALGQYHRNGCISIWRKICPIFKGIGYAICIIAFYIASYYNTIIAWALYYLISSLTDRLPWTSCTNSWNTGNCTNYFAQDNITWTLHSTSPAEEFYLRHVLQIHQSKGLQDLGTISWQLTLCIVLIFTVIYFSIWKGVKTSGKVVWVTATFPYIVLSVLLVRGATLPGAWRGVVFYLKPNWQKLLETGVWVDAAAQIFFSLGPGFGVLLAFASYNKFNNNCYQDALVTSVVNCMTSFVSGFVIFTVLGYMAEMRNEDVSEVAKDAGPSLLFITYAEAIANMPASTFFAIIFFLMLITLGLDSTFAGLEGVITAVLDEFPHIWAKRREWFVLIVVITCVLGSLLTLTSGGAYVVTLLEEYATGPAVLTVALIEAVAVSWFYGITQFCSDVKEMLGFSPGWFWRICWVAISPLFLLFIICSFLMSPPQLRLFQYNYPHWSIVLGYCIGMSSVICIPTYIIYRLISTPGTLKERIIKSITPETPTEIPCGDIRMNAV

## COc1ccc([C@H](C[N+](C)(C)[O-])C2(O)CCCCC2)cc1 [(R)-venlafaxine-N-oxide, R-Venlafaxine N-oxide]
Serotonin reuptake sites
  Ki: 7.94 µM
Dopamine reuptake sites
  Ki: > 31.6 µM
[3H]-serotonin reuptake
  IC50: 20 µM
[3H]-dopamine reuptake
  IC50: > 31.6 µM
[1]
  Ki: > 31.6 µM
[2]
  IC50: 39.8 µM

## COc1ccc([C@@H](C[N+](C)(C)[O-])C2(O)CCCCC2)cc1 [(S)-venlafaxine-N-oxide, S-Venlafaxine N-oxide]
Serotonin reuptake sites
  Ki: 6.31 µM
Dopamine reuptake sites
  Ki: > 31.6 µM
[3H]-serotonin reuptake
  IC50: 15.8 µM
[3H]-dopamine reuptake
  IC50: > 31.6 µM
[1]
  Ki: > 31.6 µM
[2]
  IC50: > 31.6 µM

## COc1ccc(C(CN(C)C)C2(O)CCCCC2)cc1 (racemic) [Venlafaxine, (R,S)-1-(2-(Dimethylamino)-1-(4-methoxyphenyl)ethyl)cyclohexanol, reference compound]
In vivo; [5]
  Kp: 3.1
  half-life: 48 min
In vivo; [6]
  Kp: 3.4
  half-life: 54 min
In vivo; [7]
  AUC: 194 ng·h/mL
  AUC(0-inf): 195 ng·h/mL
  Cmax: 408 ng/mL
  Tmax: 0 min
  Vd: 6.2 L/kg
  clearance: 85.6 mL/min/kg
In vivo; male, NMRI, mouse, plasma, oral, 10 mg/kg
  bioavailability: 48.7%
In vivo; [8]
  AUC: 943 ng·h/mL
  AUC(0-inf): 948 ng·h/mL
  Cmax: 630 ng/mL
  Tmax: 12 min
In vivo; mice, after administration of venlafaxine
  N-oxide found in brain: only traces
[3]
  In vitro activity, in words: most potent as inhibitor of serotonine reuptake

## C[N+](C)([O-])C[C@H](c1ccc(O)cc1)C1(O)CCCCC1 [(S)—O-desmethyl-venlafaxine-N-oxide, O-desmethyl-S-venlafaxine N-oxide]
Serotonin reuptake sites
  Ki: 12.6 µM
Dopamine reuptake sites
  Ki: > 31.6 µM
[3H]-serotonin reuptake
  IC50: 25.1 µM
[3H]-dopamine reuptake
  IC50: > 31.6 µM
[1]
  Ki: > 31.6 µM
[2]
  IC50: > 31.6 µM

## CN(C)C[C@H](c1ccc(O)cc1)C1(O)CCCCC1 [(S)—O-desmethyl-venlafaxine, O-desmethyl-S-Venlafaxine, reference compound]
[3H]-dopamine reuptake
  IC50: 10 µM
[2]
  IC50: 0.398 µM

## CN(C)C[C@@H](c1ccc(O)cc1)C1(O)CCCCC1 [(R)—O-desmethyl-venlafaxine, O-desmethyl-R-Venlafaxine, reference compound]
[3H]-dopamine reuptake
  IC50: 5.01 µM
[2]
  IC50: 0.398 µM

## C[N+](C)([O-])C[C@@H](c1ccc(O)cc1)C1(O)CCCCC1 [(R)—O-desmethyl-venlafaxine-N-oxide, O-Desmethyl-R-venlafaxine N-oxide]
Serotonin reuptake sites
  Ki: 10 µM
Dopamine reuptake sites
  Ki: > 31.6 µM
[3H]-serotonin reuptake
  IC50: 39.8 µM
[3H]-dopamine reuptake
  IC50: > 31.6 µM
[1]
  Ki: > 31.6 µM
[2]
  IC50: > 31.6 µM

## CN(C)CC(c1ccc(O)cc1)C1(O)CCCCC1 (racemic) [O-desmethylvenlafaxine, (R,S)-1-[2-(dimethylamino)-1-(4-hydroxyphenyl)ethyl]-cyclohexanol]
[3]
  In vitro activity, in words: equipotent with venlafaxine

## COc1ccc(C(C[N+](C)(C)[O-])C2(O)CCCCC2)cc1 (racemic) [Venlafaxine-N-oxide, (R,S)-1-[2-oxido-(dimethylamino)-1-(4-methoxyphenyl)ethyl]-cyclohexanol]
Serotonin reuptake sites
  Serotonine binding pKi: 5.5
Dopamine reuptake sites
  Dopamine binding pKi: <4.5
[3H]-serotonin reuptake
  Serotonine inhibition pIC50: 4.9
[3H]-dopamine reuptake
  Dopamine inhibition pIC50: 4.5
[1]
  Noradrenaline binding pKi: <4.5
[2]
  Noradrenaline inhibition pIC50: 4.9
In vivo; i.v. 1 mg/kg
  Brain/plasma ratio: 0.1
In vivo; i.v., 10 mg/kg p.o. against 1 mg/kg i.v.
  bioavailability: 23.3%
In vivo; mice
  Conversion in vivo after administration: reduced to the parent compound
In vivo; mice, after i.v. administration of venlafaxine-N-oxide
  Time after which venlafaxine concentrations in plasma and brain exceed those of the N-oxide: Approximately one hour
In vivo; mice, after oral administration of venlafaxine-N-oxide
  Factor by which venlafaxine concentrations in plasma and brain are higher than those of the N-oxide: 10 to 100
In vivo; [9]
  Plasma concentration of Venlafaxine: 22 ng/mL
  Plasma concentration of Venlafaxine-N-oxide: 173 ng/mL
In vivo; [10]
  Plasma concentration of Venlafaxine: 8.0 ng/mL
  Plasma concentration of Venlafaxine-N-oxide: 39 ng/mL
In vivo; [11]
  Plasma concentration of Venlafaxine: 0.59 ng/mL
  Plasma concentration of Venlafaxine-N-oxide: 7.3 ng/mL
In vivo; [12]
  Plasma concentration of Venlafaxine: 0 ng/mL
  Plasma concentration of Venlafaxine-N-oxide: 0.16 ng/mL
In vivo; [13]
  Plasma concentration of Venlafaxine: 0 ng/mL
  Plasma concentration of Venlafaxine-N-oxide: 0 ng/mL
In vivo; [14]
  Plasma concentration of Venlafaxine: 72 ng/mL
  Plasma concentration of Venlafaxine-N-oxide: 840 ng/mL
In vivo; [15]
  Plasma concentration of Venlafaxine: 117 ng/mL
  Plasma concentration of Venlafaxine-N-oxide: 183 ng/mL
In vivo; [16]
  Plasma concentration of Venlafaxine: 77 ng/mL
  Plasma concentration of Venlafaxine-N-oxide: 38 ng/mL
In vivo; [17]
  Plasma concentration of Venlafaxine: 3.3 ng/mL
  Plasma concentration of Venlafaxine-N-oxide: 0.75 ng/mL
In vivo; [18]
  Plasma concentration of Venlafaxine: 0.63 ng/mL
  Plasma concentration of Venlafaxine-N-oxide: 0.12 ng/mL
In vivo; mouse, in vivo
  Brain penetration: hardly penetrates the brain
In vivo; mouse, in vivo, iv, 1 mg/kg
  VD: 3 L/kg
  clearance: 46.1 mL/min/kg
In vivo; plasma, i.v. 1 mg/kg
  t1/2: 48 min
  AUC0→∞: 361.7 ng·h/mL
In vivo; plasma, i.v. 1 mg/kg, Tend = 7 hrs
  AUC0→end: 361.6 ng·h/mL
In vivo; plasma, i.v. 1 mg/kg, extrapolated to T0 (time zero)
  Cmax (C0): 1205.2 (C0)* ng/ml
In vivo; plasma, p.o. 10 mg/kg
  Cmax: 1040.0 ng/mL
  t1/2: 186 min
  AUC0→∞: 842.2 ng·h/mL
In vivo; plasma, p.o. 10 mg/kg, Tend = 24 hrs
  AUC0→end: 841.6 ng·h/mL
[4]
  Reduction to venlafaxine in TIM2: nearly quantitatively reduced to venlafaxine

From patent US7696383B2 (Solvay Pharmaceuticals B.V., priority 2007, dated 2010)
